Assay results: patent US8795973B2, “Methods for identifying inhibitors of mannan-binding lectin associated serine protease (MASP) proteins and uses thereof” (University of Leceister, priority 2010, dated 2014)
Several values for one entry are separate records, joined by “and”; a condition that tells them apart may be missing. Equal entries are not always repeated.

Assays:
MASP-1 CUB2 = target: T1, MASP-1 CUB2 (Rattus norvegicus, UniProt Q8CHN8); assay: Isothermal titration calorimetry of Ca2+ binding to MASP-1 CUB2; settings: ITC, two independent experiments
T1 construct: MASP-1 CUB2 (residues E165-A277 of the mature polypeptide, isoform 1); made in house; host or cells: E. coli BL21 DE3
T1 sequence (Q8CHN8 189-301): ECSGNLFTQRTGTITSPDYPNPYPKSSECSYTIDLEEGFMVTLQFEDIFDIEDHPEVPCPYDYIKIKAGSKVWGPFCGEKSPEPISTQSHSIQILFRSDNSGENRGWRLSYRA
Experimental: The CUB2 domain was made calcium free by EDTA treatment and dialyzed extensively into 50 mM Tris/HCl, pH 7.4 containing 150 mM NaCl. Freshly prepared 2 mM CaCl2 in the same batch of assay buffer was titrated into CUB2 domain (114 μM) in the cell of a VP-isothermal titration calorimeter (Microcal) equilibrated at 25° C. The data were fitted to a 1:1 binding model using the Origin software supplied by the manufacturer, after subtraction of the heats of dilution of the calcium. Because binding was weak, the experiment was carried out under low ‘c-value’ conditions (where the concentration of the protein in the cell is lower than that of the KD).

[1] = target: T2, MASP-1 binding to immobilized MBL (Rattus norvegicus, UniProt Q8CHN8, H450D/I451D/K449D/R453K/S452D); assay: Surface plasmon resonance inhibition of MASP-1 binding to immobilized MBL; settings: for Inhibition of MBL/MASP-1 binding (in words): full-length MBL/MASP-1 complexes
T2 construct: made in house
T2 sequence (Q8CHN8 25-704 K449D/H450D/I451D/S452D/R453K): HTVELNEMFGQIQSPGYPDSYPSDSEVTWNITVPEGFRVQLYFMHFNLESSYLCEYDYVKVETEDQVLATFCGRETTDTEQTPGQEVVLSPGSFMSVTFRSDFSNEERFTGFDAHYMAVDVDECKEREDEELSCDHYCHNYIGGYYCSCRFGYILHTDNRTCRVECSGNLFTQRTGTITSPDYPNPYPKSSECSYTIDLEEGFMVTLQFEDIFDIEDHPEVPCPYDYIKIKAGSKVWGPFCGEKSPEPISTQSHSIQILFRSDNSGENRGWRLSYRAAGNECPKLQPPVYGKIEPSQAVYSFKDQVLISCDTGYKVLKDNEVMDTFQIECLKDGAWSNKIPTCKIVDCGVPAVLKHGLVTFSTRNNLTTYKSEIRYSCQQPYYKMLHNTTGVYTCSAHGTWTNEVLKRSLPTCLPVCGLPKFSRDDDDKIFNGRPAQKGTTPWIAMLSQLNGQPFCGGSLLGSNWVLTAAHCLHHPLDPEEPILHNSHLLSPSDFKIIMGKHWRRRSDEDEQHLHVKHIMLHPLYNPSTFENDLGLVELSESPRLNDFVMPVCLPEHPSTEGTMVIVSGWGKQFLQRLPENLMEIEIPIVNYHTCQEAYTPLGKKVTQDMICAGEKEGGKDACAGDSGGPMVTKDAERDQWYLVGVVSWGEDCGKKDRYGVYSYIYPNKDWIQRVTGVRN
Experimental: Rat MBL-A (referred to as MBL throughout) was produced as described previously. (Wallis and Drickamer, supra (1999)). MASP-1ent (referred to as MASP-1) is a modified form of rat MASP-1 in which the zymogen cleavage site has been replaced by an enterokinase recognition site (DDDDK; SEQ ID NO: 4). […] (Chen and Wallis (2004)). […] (Persikov et al., J Biol Chem 280:19343-19349 (2005)).
MBL (0.025 mg/ml) was immobilized onto the surface of a GLM sensor chip (˜10,000 response units) at pH 4.5, using amine-coupling chemistry. Binding to CUB2 was measured on a ProteOn® XPR36 (BioRad) in 10 mM Tris/HCl pH 7.4, containing 140 mM NaCl, 5 mM Ca^2+ and 0.005% Tween-20 at 25° C., at a flow rate of 25 μL/min. For inhibition assays, MBL was immobilized on to a CM-5 sensor chip (14,000 response units) and binding was measured on a Biacore® 2000 (GE Healthcare) in 20 mM Tris/HCl pH 7.4, containing 140 mM NaCl, 5 mM Ca^2+, and 0.005% SP-20. MASP-1 (100 nM) was premixed with inhibitor and flowed over the chip surface at a rate of 5 μL/min at 25° C. Changes in response units caused by differences in sample composition were subtracted from all data. To account for changes in ionic strength of the buffer due to the inhibitor, binding was measured in the presence of equivalent concentrations of NaCl.

[2] = test system: lectin pathway complement activation; assay: Lectin pathway specific complement activation (Wieslab MBL pathway kit, membrane-attack complex deposition on mannan-coated plates); assay type: biochemical; settings: three independent experiments, read-out: IC50, inhibition of lectin pathway complement activation
Experimental: Lectin pathway specific complement activation was measured using the Wieslab® MBL pathway kit (Euro-Diagnostica), which measures deposition of the membrane attack complexes on a mannan-coated plate. The lectin pathway is functional, even under conditions of high ionic strength (1M NaCl). (Petersen et al., J Immunol Methods 257:107-116 (2001)).

MBL = MBL (Rattus norvegicus, UniProt P19999); settings: read-out: Affinity of full-size MASP-1 binding to MBL; cited from earlier work

[Ca+2].[Cl-].[Cl-] [Ca^2+, CaCl2]
Kd (MASP-1 CUB2; single Ca2+ site model, 25° C.): 0.49 mM and 0.5 mM
ΔH of Ca2+ binding to MASP-1 CUB2 (MASP-1 CUB2): -1.1 ± 0.14 kcal/mol

[Cl-].[Na+] [NaCl]
Binding of MASP-1 to MBL, % of maximal ([1]; ionic strength control, all NaCl concentrations tested (up to 550 mM)): > 60%

CCN [ethylamine]
Inhibition of MBL/MASP-1 binding (in words) [1]: inhibitors

NCCCC[C@H](N)C(=O)O [lysine]
IC50 ([1]; SPR, MASP-1 100 nM premixed with inhibitor, 25° C., three independent experiments): 49 mM and ~50 mM
IC50 [2]: 25 mM and ~25 mM

CN [methylamine]
Inhibition of MBL/MASP-1 binding (in words) [1]: inhibitors

B1: MASP-1: full-size MBL-associated serine protease 1 (protein, UniProt Q8CHN8 1-704, looked up)
chain: MRFLSFRRLLLYHVLCLTLTEVSAHTVELNEMFGQIQSPGYPDSYPSDSEVTWNITVPEGFRVQLYFMHFNLESSYLCEYDYVKVETEDQVLATFCGRETTDTEQTPGQEVVLSPGSFMSVTFRSDFSNEERFTGFDAHYMAVDVDECKEREDEELSCDHYCHNYIGGYYCSCRFGYILHTDNRTCRVECSGNLFTQRTGTITSPDYPNPYPKSSECSYTIDLEEGFMVTLQFEDIFDIEDHPEVPCPYDYIKIKAGSKVWGPFCGEKSPEPISTQSHSIQILFRSDNSGENRGWRLSYRAAGNECPKLQPPVYGKIEPSQAVYSFKDQVLISCDTGYKVLKDNEVMDTFQIECLKDGAWSNKIPTCKIVDCGVPAVLKHGLVTFSTRNNLTTYKSEIRYSCQQPYYKMLHNTTGVYTCSAHGTWTNEVLKRSLPTCLPVCGLPKFSRKHISRIFNGRPAQKGTTPWIAMLSQLNGQPFCGGSLLGSNWVLTAAHCLHHPLDPEEPILHNSHLLSPSDFKIIMGKHWRRRSDEDEQHLHVKHIMLHPLYNPSTFENDLGLVELSESPRLNDFVMPVCLPEHPSTEGTMVIVSGWGKQFLQRLPENLMEIEIPIVNYHTCQEAYTPLGKKVTQDMICAGEKEGGKDACAGDSGGPMVTKDAERDQWYLVGVVSWGEDCGKKDRYGVYSYIYPNKDWIQRVTGVRN
modifications: full-length
Kd (MBL): 10 to 100 nM
